Assay results taken from US10105384B2, “Nucleic acids targeting TCTP for use in the treatment of chemo- or hormone-resistant cancers” (INSTITUT NATIONAL DE LA SANTE ET DE LA RECHERCHE MEDICALE …, priority 2010, dated 2018).
Peptide text beside a SMILES is read from it. * marks the point of attachment. Cbz = O=C(OCc1ccccc1)*

Legend:
Assay type in all cases: cell-based, human
[1] = tested on: TCTP; experiment: ASO sequences screening: TCTP expression by western blot and/or qRT-PCR; conditions: WB and/or qRT-PCR, PC-3 cells overexpressing TCTP
Experimental: (§1) Western Blot analysis was performed as described previously (Rocchi et al., 2004, Cancer Res. 64:6595-602) with 1:5000 rabbit anti-Hsp27 polyclonal antibody (Assay Designs, Villeurbanne, France), 1:2000 rabbit TCTP polyclonal antibody (Abcam Inc., Cambridge, UK), 1:250 rabbit anti-MSL1v1 polyclonal antibody (Abcam Inc.), 1:500 mouse anti-ubiquitin monoclonal antibody (Santa Cruz Biotechnology Inc., Heidelberg, Germany) or 1:1000 rabbit anti-caspase-3 polyclonal antibody (Cell Signalling Technology Inc., Danvers, USA). Loading levels were normalized using 1:5000 rabbit anti-glyceraldehyde-3-phosphate dehydrogenase polyclonal (Abcam Inc.) or 1:2500 mouse anti-vinculine monoclonal antibodies (Sigma Chemical Co., St Louis, Mo., USA).
The quantitative reverse transcription polymerase chain reaction (qRT-PCR) analysis was done on a LightCycler detection system (Roche Applied Science, Meylan, France). Expression levels of 18S subunit of the ribosome gene were used as an internal control. First strand cDNA was synthesized from 1 μg of total RNA using random hexamers and expanded by reverse transcriptase according to the manufacturer's instructions (ImProm-II Reverse Transcription System, Promega, Charbonniéres-les-Bains, France), subsequently diluted 1:10 with water, and stored at −20° C. until use. TCTP and 18S polymerase chain reaction (PCR) products were detected by quantitative real time PCR (qRT-PCR) using the SYBR Premix Ex Taq (Takara Bio Inc, St Germain en Laye, France) following the manufacturer's instructions. Five microliters of diluted cDNA template were mixed with 10 μl SYBR Premix Ex Taq (including Taq polymerase, reaction buffer, MgCl2, SYBR green I dye, and deoxynucleotide triphosphate mix) and 0.4 μM forward and reverse primers, in a final volume of 20 μl. The following primers were used: TCTP forward 5′-[…]-3′ (SEQ ID NO: 8) and TCTP reverse 5′-[…]-3′; (SEQ ID NO: 9); 18S forward 5′-[…]-3′ (SEQ ID NO: 10) and 18S reverse 5′-[…]-3′ (SEQ ID NO: 11). After an initial Taq activation for 10 seconds at 95° C., Light Cycler PCR was done using 55 cycles with the following cycling conditions: 95° C. for 5 seconds, 58° C. for 7 seconds, and 72° C. for 14 seconds. Each sample was analyzed in duplicate and the experiment was repeated three times. Results were analyzed using RealQuant data analysis software (Roche, Neuilly-sur-seine, France). The results analysis was done with the 2(-Delta Delta C(T)) Method (Livak K J. et al., 2001; Methods. 25:402-8).
In order to find a sequence ASO having an inhibiting effect on TCTP expression, 30 ASO sequences have been designed 26 of which are shown in table 1. Said 30 sequences cover the TCTP mRNA (accession number NM_003295). Using BLAST program, the specificity of said sequences has been studied. Among said 30 sequences, only 15 sequences have been identified as being specific for TCPT mRNA sequence (see table 1). The effect of said ASO sequences on TCTP expression was tested by western blot analysis (WB) and/or by quantitative reverse transcription polymerase chain reaction (qRT-PCR) on PC-3 cells overexpressing TCTP. WB and qRT-PCR were performed as exposed in example 1.

[2] = tested on: PC-3 cells; experiment: MTT cell growth assay, PC-3 cells; conditions: PC-3 cells, 50 nM docetaxel 24 h, MTT
Experimental: In brief, cells were seeded in each well of 12-well microtiter plates (30 000 to 50 000 cells per well) and allowed to attach overnight. To study the effect of TCTP downregulation on apoptosis induced by docetaxel, PC-3 cells were transiently transfected the day after seeding with 5 nM of TCTP siRNA for 48 h or 100 nM of TCTP ASO for 72 h. Cells were then treated with 50 nM of docetaxel and MTT assays were performed after 24 h. To assess the effect of TCTP downregulation on Hsp27 cytoprotection, LNCaP-Mock and -Hsp27 cells were transiently transfected the day after seeding with 5 nM of TCTP siRNA for 48 h. The down- or upregulation of TCTP effect on LNCaP and C4-2 cell viability was realized after transient transfections with 100 nM of TCTP ASO or 0.02 μg/μl of pDEST-TCTP for 72 h and 48 h respectively. Cells were then treated with 1 nM of docetaxel in serum-free media (mimics androgen withdrawal in vitro) and crystal violet assays were performed the day after. Each assay was performed in triplicate.
To assess the effect of TCTP down-regulation on CR cell growth, PC-3 cells were treated for 1 day with 5 nM TCTP siRNA or for 2 days with 100 nM TCTP ASO. At the end of the treatment, PC-3 cells were incubated with 50 nM of docetaxel. Growth rates of PC-3 cells were examined using the 3-(4,5-dimethylthiazol-2-yl)-2,5-diphenyltetrazolium bromide assay. […] The effect of the inhibition of TCTP on cell survival was analyzed in PC-3 after combined ASO and docetaxel-chemotherapy treatment. After 24 h of treatment with 50 nM of docetaxel, cell viability was determined using a MTT assay. The experiment was repeated in triplicate. *** differs from PC-3 transfected with control-siRNA (P50.001) using Statview software. […] The same effect has been observed with TCTP siRNA (SEQ ID NO: 3) and 5′-[…]-3′ (SEQ ID NO: 14) and 5′-[…]-3′ (SEQ ID NO: 15) ASOs.
PC3 cells were transfected with a TCTP siRNA of SEQ ID NO: 3. Cell proliferation and apoptosis were studied using respectively MTT (3-(4,5-dimethylthiazol-2-yl)-2,5-diphenyl tetrazolium bromure) assay and flow cytometry.
PC3 cells were transfected with a TCTP ASO of SEQ ID NO: 2. Cell proliferation and apoptosis were studied using respectively MTT assay and flow cytometry.

[3] = tested on: TCTP; experiment: TCTP level in LNCaP cells after Hsp27 down-regulation by OGX-427 (western blot, mRNA)
Experimental: as §1
2′-O-(2-rnethoxyethyl) ASO, OGX-427, was obtained from OncoGenex. The sequence of OGX-427 corresponds to the human Hsp27 translation initiation site (5′-GGGACGCGG-CGCTCGGTCAT-3′) (SEQ ID NO: 12). A mismatch ASO (ASO; 5′-[…]-3′) (SEQ ID NO: 13) was used as a control. The TCTP phosphorithioate ASO targeting the human TCTP (5′-[…]-3′) (SEQ ID NO: 2) and the control oligonucleotide (5′-CGTGTAGGTACGGCAGATC-3′) (SEQ ID NO: 4) were purchased from Operon (Eurofin MWG, Courtaboeuf, France) and designated ASO TCTP or ASO scrambled. […]

[4] = tested on: TCTP; experiment: TCTP half-life / proteasomal degradation in PC-3 cells (western blot); conditions: for TCTP protein levels decrease: PC-3 cells, cycloheximide alone 20 μg/ml
Experimental: Cells were plated at a density of 25,000 (PC-3) and 75 000 (LNCaP and C4-2) by 1.9 cm^2 and treated the day after with indicated siRNA or ASO for 1 or 2 days respectively. Oligofectamine, a cationic lipid (Invitrogen), was used to increase siRNA or ASO uptake into the cells. Cells were treated with indicated siRNA or ASO concentrations after a preincubation for 20 min with […] of oligofectamine in serum free OPTI-MEM (Invitrogen). Four hours later, 1 ml of FCS was added in the medium. […]
To determine whether the ubiquitination of TCTP results in its proteasomal degradation, TCTP half-life was determined after OGX-427 treatment, in the presence or absence of the proteasome inhibitor MG132 and protein synthesis inhibitor cycloheximide after 2 days.

Row | Compound | ability to inhibit TCTP expression [1] | best ability to inhibit specifically TCTP expression [1] | enhancement of docetaxel sensitivity [2] | further results
1 | 5′-AACTTGTTTCCTGCAGGTGA-3′ (all phosphorothioate, sugars by position and methylation of C not given here) [ASO15] | strong ability to inhibit TCTP expression | best ability to inhibit specifically TCTP expression | same effect | –
2 | 5′-GGGACGCGG-CGCTCGGTCAT-3′ (antisense GGGACGCGGCGCTCGGTCAT; 2'-O-(2-methoxyethyl) modified ASO, pattern not given here) [OGX-427, 2′-O-(2-methoxyethyl) ASO from OncoGenex corresponding to the human Hsp27 translation initiation site] | – | – | – | TCTP mRNA expression level ([3]; LNCaP cells treated by OGX-427): without any change; TCTP protein level lower than OGX-427-control ([3]; LNCaP cells, western blot): 70%
3 | 5′-TGGTTCATGACAATATCGAC-3′ (all phosphorothioate, sugars by position and methylation of C not given here) [ASO14] | strong ability to inhibit TCTP expression | best ability to inhibit specifically TCTP expression | same effect | –
4 | CC(C)C[C@@H](C=O)NC(=O)[C@H](CC(C)C)NC(=O)[C@H](CC(C)C)NC(=O)OCc1ccccc1 [MG132] (Cbz-Leu-Leu-Leu-aldehyde) | – | – | – | TCTP half-life ([4]; PC-3 cells after OGX-427 treatment, MG132 10 μmol/L): prolonged the half-life of TCTP
5 | C[C@@H]1C[C@@H]([C@H](O)CC2CC(=O)NC(=O)C2)C(=O)[C@@H](C)C1 [cycloheximide] | – | – | – | TCTP protein levels decrease ([4]; 24 h): 40%; TCTP protein levels decrease ([4]; 48 h): 60%
